The values below come from article doi:10.64898/2025.12.18.695269, “Structural Basis of TACO1-Mediated Efficient Mitochondrial Translation” (bioRxiv, 2025).

Assay [1] addresses T1, TACO1 (Homo sapiens, UniProt Q9BSH4).
T1 construct: recombinant TACO1
The assay can be described thus: competition with BODIPY-FL-GTPγS fluorescence binding. As to conditions: pre-incubation with GMPPNP before BODIPY-FL-GTPγS; competitive.

For assay [2], the target named is T1, TACO1. The assay can be described thus: fluorescence increase of BODIPY-labelled nucleotide, saturation fit. It is filed as binding. As to conditions: labelled compound; 500 nM TACO1, 0-30 μM ligand, 10 min.

As a reminder, the Kd is a measure of binding affinity in units of concentration. Higher therefore signals lower affinity.

As to `Nc1nc2c(ncn2[C@@H]2O[C@H](COP(=O)(O)OP(=O)(O)NP(=O)(O)O)[C@@H](O)[C@H]2O)c(=O)[nH]1` [GMPPNP], the “competition with BODIPY-FL-GTPγS fluorescence binding” value on TACO1 [1] is reported as “This effect was abolished by pre-incubation with the non-hydrolyzable GTP analog GMPPNP”.

Take BODIPY-FL-GTPγS: on TACO1 [2], the equilibrium dissociation constant (Kd) was 25 µM.
